Measurements from article PMC4148180 (Neurobiology of Disease, 2014).

Key:
[1] = target: T1, P2Y12 receptor (P2Y12R) (Homo sapiens, UniProt Q9H244); experiment: inhibition of forskolin-induced cAMP formation; type: cell-based
[2] = target: T1, P2Y12 receptor (P2Y12R); experiment: cAMP accumulation assay, rightward shift of 2-methylthio-ADP curve; type: cell-based

T1 sequence (Q9H244 whole entry): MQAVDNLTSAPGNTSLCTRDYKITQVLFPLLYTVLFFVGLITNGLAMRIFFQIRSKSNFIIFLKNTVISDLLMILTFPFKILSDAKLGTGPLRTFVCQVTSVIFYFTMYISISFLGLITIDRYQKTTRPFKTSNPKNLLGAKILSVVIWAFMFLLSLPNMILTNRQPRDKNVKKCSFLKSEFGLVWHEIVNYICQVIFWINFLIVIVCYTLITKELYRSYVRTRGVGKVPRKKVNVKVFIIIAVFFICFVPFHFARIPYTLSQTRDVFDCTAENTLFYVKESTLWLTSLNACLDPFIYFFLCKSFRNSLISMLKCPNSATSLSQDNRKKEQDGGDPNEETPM

EC50 [1] | Kb [2] | Structure (SMILES)
260 pM | – | CSc1nc(N)c2ncn([C@@H]3O[C@H](COP(=O)(O)OP(=O)(O)O)[C@@H](O)[C@H]3O)c2n1 [2-methylthio-ADP]
– | 79.4 pM | Nc1c(S(=O)(=O)O)cc(Nc2ccc(Nc3ccccc3)c(S(=O)(=O)O)c2)c2c1C(=O)c1ccccc1C2=O [PSB-0739]
